Values quoted from earlier work, collected in US20130137781A1, “PHARMACEUTICAL PREPARATION FOR CONTROLLING WATER-SOLUBLE DRUG RELEASE” (priority 2010, published 2013).

Experiments:
[1] = common logarithm of n-octanol/water partition coefficient

SMILES | Log P [1] | thermal stability in solution state
N[C@@H](Cc1ccccc1)C(=O)O [L-phenylalanine] | −1.5 | 
N[C@H](C(=O)O)[C@H](O)c1ccc(O)c(O)c1 [droxidopa] | −3.2 | thermally unstable in solution state
NS(=O)(=O)Cc1noc2ccccc12 [zonisamide] | 0.2 | 
